The values below come from patent US10080748B2, “Use of flap inhibitors to reduce neuroinflammation mediated injury in the central nervous system” (Bioscience Pharma Partners, LLC, priority 2014, dated 2018).

The test system of series [1] is leukotriene LTC4 production. As to the kind of experiment: LTC4 levels in brain after rat fluid percussion injury (RP LC-MS/MS). It is filed as in vivo. As for the experimental part:
(§1) Craniotomy and lateral fluid percussion injury (FPI) were performed using a previously validated and published procedure. Farias S, et al. J. Neurotraum, 26, 1977-1986, 2009; Frey L. C. et al. J. Neurosci. Methods 177, 267-272, 2009. Throughout the specification animals subjected to this protocol are referred to as having a TBI since this treatment protocol is a TBI model. Briefly, rats were anesthetized with 3-5% isoflurane, isosol, VEDCO Inc., St. Joseph, Mo., via nose cone and mounted in a stereotaxic head frame. A 3 millimeter (mm) craniotomy was created and centered at 3 mm caudal to bregma and 3.5 mm left of the sagittal suture, keeping the exposed dura intact. One steel support screw was embedded in the skull on the contralateral side. A Luer-Lock hub with an inside diameter of 3.5 mm was centered over the craniotomy and bonded to the skull with cyanoacrylate adhesive and capped. Dental acrylic, Snap, Parka, Inc., Edgewood, N.J., was poured around the huh and screw. After the acrylic hardened antibiotic ointment was applied around the cap and the animals were returned to their cages. The next day, approximately 15-20 hours later, animals were anesthetized with isoflurane in an induction chamber, immediately connected to the FPI apparatus, and received a 20 millisecond (ms) pulse of pressurized sterile saline at 2.7 atmospheres (atm) of pressure to simulate a moderate severity impact on the intact dural surface through the craniotomy before awakening from anesthesia. […] All animals received a subcutaneous injection of the analgesic, buprenorphine, 0.05 milligram/kilogram (mg/kg) Buprenex, prior to craniotomy, and subsequent injections every 12 hours for two days. Moistened food pellets were provided after injury, and all animals were monitored daily for well-being and weight changes.
Two groups of four rats each were subjected to FPI as described above. Four days prior to the FPI, each animal was briefly anesthetized for less than 5 minutes with 3-3.5% isoflurane and administered either NaCl 0.9%, 2 ml/kg IV (vehicle) or vinblastine sulfate 0.5 mg/kg IV in an identical volume. Neutrophil depletion was verified by complete cell blood counts (CBC) in vinblastine treated animals 4 days after administration. Both groups were euthanized by decapitation and the brain lipids extracted 1 hour after FPI. The amounts of LTC4 formed, measured by RP LC-MS/MS and normalized per milligram of protein, were compared between groups using one-way analysis of variance and the Student-Newman-Keuls test for multiple comparisons.
The indole FLAP inhibitor MK-886 was prepared at a dose of 2.5 milligram/milliliter (mg/ml), dissolved in dimethyl sulfoxide (DMSO) and then diluted with 0.9% saline to 10% DMSO. The rats were briefly anesthetized with 3-3.5% isoflurane and either […] at a dose of 6 mg/kg or vehicle was administered intravenously (IV) by tail vein injection. All animals were allowed to wake before undergoing additional procedures.
Cortical and hippocampal regions from ipsilateral and contralateral hemispheres were collected in 4 ml of 80% methanol, homogenized with a Dounee homogenizer, and internal standards were added to the homogenates. Protein content was measured using bicinchoninic acid assay (BCA) for protein to normalize lipid levels to the amount of tissue. Samples were centrifuged and the supernatant was collected. Samples were diluted to a final methanol concentration of lower than 15% and then the lipids were extracted using a solid phase extraction cartridge, Strata C18-E, 100 mg/1 ml, Phenomenex, Torrence Calif. The eluate, 1 ml of methanol, was dried down and reconstituted in 70 microliters (μl) of High Performance Liquid Chromotography (HPLC) solvent A, which is 8.3 mM acetic acid buffered to pH 5.7 with NH4OH, plus […] of solvent B, which is acetonitrile/methanol, 65/35, v/v. […]

Series [2] relates to rats subjected to FPI (TBI model). As to the kind of experiment: Gd-enhanced T1-weighted MRI, BBB disruption 72 hours after TBI (rat FPI). It is filed as in vivo. Here is the method:
as §1, with “changes. […]” for “changes.”
The effect of leukotrienes on TBI-related BBB disruption was assessed using Gd-enhanced T1-weighted MRI 72 hours after TBI in rats. […]

The conditions of series [3]: cited from earlier work.
In series [4] the test system is rats subjected to FPI (TBI model). In words: T2-weighted MRI brain swelling (edema) 72 hours after TBI (rat FPI). It is filed as in vivo. Here is the method:
Craniotomy and lateral fluid percussion injury (FPI) were performed using a previously validated and published procedure. Farias S, et al. J. Neurotraum, 26, 1977-1986, 2009; Frey L. C. et al. J. Neurosci. Methods 177, 267-272, 2009. Throughout the specification animals subjected to this protocol are referred to as having a TBI since this treatment protocol is a TBI model. Briefly, rats were anesthetized with 3-5% isoflurane, isosol, VEDCO Inc., St. Joseph, Mo., via nose cone and mounted in a stereotaxic head frame. A 3 millimeter (mm) craniotomy was created and centered at 3 mm caudal to bregma and 3.5 mm left of the sagittal suture, keeping the exposed dura intact. One steel support screw was embedded in the skull on the contralateral side. […] Moistened food pellets were provided after injury, and all animals were monitored daily for well-being and weight changes. […]
For each rat, five slices, 1.2 mm thick, spanning the entire area of injury were used to calculate FPI-related brain swelling. The diameter of the injured, ipsilateral hemisphere was measured from midline to the widest point of the cortex (Fiji/ImageJ, NIH). The difference between the ipsilateral (ipsi) and contralateral (contra) hemisphere diameters was then calculated and normalized to the diameter of the contralateral hemisphere using the formula: {(diameter Ipsi−diameter Contra)/diameter Contra}×100 […]

The mark [5] stands for this setting: MK-886 6 mg/kg IV 30 minutes prior to TBI, 1 hour after TBI.
[6] abbreviates: MK-886 6 mg/kg IV 30 minutes prior to TBI, measured 1 hour after TBI.
Setting [7] is: single dose 15 minutes after TBI.

Each structure is given as a SMILES string.

On to `CC(C)c1ccc2c(c1)c(SC(C)(C)C)c(CC(C)(C)C(=O)O)n2Cc1ccc(Cl)cc1` [MK-886, 1-[(4-Chlorophenyl)methyl]-3-[(1,1-dimethylethyl)thio]-α,α-dimethyl-5-(1-methylethyl)-1H-Indole-2-propanoic acid], for which, in series [1] (setting [5]), the “LTC4 levels lower than vehicle-treated injured animals, contralateral right hemisphere” value is listed as 64% and the “LTC4 levels lower than vehicle-treated injured animals, ipsilateral left hemisphere” value was determined as 85%. In series [1] (setting [6]), the “LTC4 level, contralateral right hemisphere” value is recorded as 2.6+/−0.80 pg/mg protein and the “LTC4 level, ipsilateral left hemisphere” value was 3.39+/−0.42 pg/mg protein. Also, in series [1] (MK-886-treated injured rats), the “LTC4 level, ipsilateral cortex” value was “undetectable” and the “LTC4 level, ipsilateral hippocampus” value is reported as “undetectable”. For the same molecule, in series [1] (setting [7]), the “LTC4 level, contralateral hemisphere” value was “below the detectable threshold” and the “LTC4 level, ipsilateral hemisphere” value is on record as “below the detectable threshold”. For the same molecule, in series [2] (15 min post-injury), the Gd extravasation entry was “no effect”. Besides, the Gd extravasation entry in series [2] (30 min pre-injury) was “no effect”. For the same molecule, the Gd extravasation entry in series [2] (60 min post-injury) is “no effect”. Besides, the plasma protein binding result in series [3] is reported as “high”. Also, the normalized brain swelling in series [4] (30 minutes pre-TBI) is listed as 4.12+/−0.08%. Moreover, the normalized brain swelling in series [4] (60 minutes post-TBI) was 8.98+/−1.0%.
